Source: patent US20240166652A1, “MODULATORS OF THE INTEGRATED STRESS PATHWAY” (Calico Life Sciences LLC, priority 2017, published 2024)

Test system: ATF4 luciferase reporter in HEK293T cells
Assay: ATF4-Luc assay (ATF4 luciferase reporter, tunicamycin-treated HEK293T cells)
Format: cell-based, human
Details: HEK293T cells carrying the ATF4 luciferase reporter, 1 μg/mL tunicamycin, 7 hours

| SMILES | EC50 (Homo sapiens, HEK-293T) [nM] | EC50 [nM] |
| --- | --- | --- |
| O=C(COc1ccc(Cl)c(F)c1)NC12CC(NCCCOc3ccc(Cl)c(F)c3)(C1)C2 [Compound 705, 2-(4-chloro-3-fluorophenoxy)-N-(3-{[3-(4-chloro-3-fluorophenoxy)propyl]amino}bicyclo[1.1.1]pentan-1-yl)acetamide] | 10 to 50 | – |
| Cc1cc(OCC(=O)NC23CCC(NC(=O)COc4ccc(F)c(F)c4)(CC2)[C@@H](O)C3)ccc1F [Compound 815, 2-(3,4-difluorophenoxy)-N-{(2S)-4-[2-(4-fluoro-3-methylphenoxy)acetamido]-2-hydroxybicyclo[2.2.2]octan-1-yl}acetamide] | < 10 | – |
| O=C(COc1ccc(Cl)c(Cl)c1)NC12CCC(NC(=O)COc3ccc(Cl)c(F)c3)(CC1)[C@@H](O)C2 [Compound 438, 2-(4-chloro-3-fluorophenoxy)-N-{(2S)-4-[2-(3,4-dichlorophenoxy)acetamido]-2-hydroxybicyclo[2.2.2]octan-1-yl}acetamide] | < 10 | – |
| O=C(COCc1ccccc1)NC12CC(NC(=O)COc3ccc(Cl)c(F)c3)(C1)C2 [Compound 207, 2-(benzyloxy)-N-{3-[2-(4-chloro-3-fluorophenoxy)acetamido]-bicyclo[1.1.1]pentan-1-yl}acetamide] | 50 to 250 | – |
| COc1ccc(OC)c(CCC(=O)NC23CC(NC(=O)COc4ccc(Cl)c(F)c4)(C2)C3)c1 [Compound 455, N-{3-[2-(4-chloro-3-fluorophenoxy)acetamido]bicyclo[1.1.1]pentan-1-yl}-3-(2,5-dimethoxyphenyl)propanamide] | > 2000 | – |
| Cc1cc(F)ccc1OCC(=O)NC12CCC(NC(=O)COc3ccc(Cl)c(F)c3)(CC1)[C@@H](O)C2 [Compound 755, 2-(4-chloro-3-fluorophenoxy)-N-{(2S)-4-[2-(4-fluoro-2-methylphenoxy)acetamido]-2-hydroxybicyclo[2.2.2]octan-1-yl}acetamide] | < 10 | – |
| O=C(COc1ccc(Cl)c(F)c1)NC12CCC(NC(=O)COc3ccc(Cl)c(F)c3)(CC1)N(CCO)C2=O [Compound 679, N,N′-[2-(2-hydroxyethyl)-3-oxo-2-azabicyclo[2.2.2]octane-1,4-diyl]bis[2-(4-chloro-3-fluorophenoxy)acetamide]] | 50 to 250 | – |
| O=C(COc1ccc(Cl)cc1)NC12CCC(NC(=O)COc3cc(F)c4cn[nH]c4c3)(CC1)CC2 [Compound 739, 2-(4-chlorophenoxy)-N-(4-{2-[(4-fluoro-1H-indazol-6-yl)oxy]acetamido}bicyclo[2.2.2]octan-1-yl)acetamide] | < 10 | – |
| O=C(/C=C/c1ccc(C(F)(F)F)nc1)NC12CC(NC(=O)COc3ccc(Cl)c(F)c3)(C1)C2 [Compound 351, (2E)-N-{3-[2-(4-chloro-3-fluorophenoxy)acetamido]bicyclo[1.1.1]pentan-1-yl}-3-[6-(trifluoromethyl)pyridin-3-yl]prop-2-enamide] | 250 to 500 | – |
| O=C(COc1ccc(Cl)c(F)c1)NC12CCC(NC(=O)COc3ccc(Cl)c(F)c3)(CC1)C(N1CC(F)(F)C1)C2 (stereo not shown) [Compound 715, N,N′-[2-(3,3-difluoroazetidin-1-yl)bicyclo[2.2.2]octane-1,4-diyl]bis[2-(4-chloro-3-fluorophenoxy)acetamide]] | 10 to 50 | – |
| CC(C)(C)[Si](C)(C)OCCN(C(=O)COc1ccc(Cl)c(F)c1)C12CC(NC(=O)COc3ccc(Cl)c(F)c3)(C1)C2 [Compound 189, N-(2-{[tert-butyl(dimethyl)silyl]oxy}ethyl)-2-(4-chloro-3-fluorophenoxy)-N-{3-[2-(4-chloro-3-fluorophenoxy)acetamido]bicyclo[1.1.1]pentan-1-yl}acetamide] | 500 to 2000 | – |
| Cc1cc(OCC(=O)NC23CCC(NC(=O)COc4ccc(Cl)c(F)c4)(CC2)C[C@@H]3O)c2ccccc2n1 [Compound 520, 2-(4-chloro-3-fluorophenoxy)-N-[(3S)-3-hydroxy-4-{2-[(2-methylquinolin-4-yl)oxy]acetamido}bicyclo[2.2.2]octan-1-yl]acetamide] | 10 to 50 | – |
| O=C(CCn1ncc(Cl)cc1=O)NC12CC(NC(=O)COc3ccc(Cl)c(F)c3)(C1)C2 [Compound 104, N-{3-[2-(4-chloro-3-fluorophenoxy)acetamido]bicyclo[1.1.1]pentan-1-yl}-3-(4-chloro-6-oxopyridazin-1(6H)-yl)propanamide] | 250 to 500 | – |
| O=C(COc1ccc(F)c(C(F)F)c1)NC12CCC(NC(=O)COc3ccc(F)c(F)c3)(CC1)[C@@H](O)C2 [Compound 775, 2-[3-(difluoromethyl)-4-fluorophenoxy]-N-{(3S)-4-[2-(3,4-difluorophenoxy)acetamido]-3-hydroxybicyclo[2.2.2]octan-1-yl}acetamide] | < 10 | – |
| O=C(Cc1ccc(C(F)(F)F)cn1)NC12CCC(NC(=O)COc3ccc(Cl)c(F)c3)(CC1)C(O)C2 (stereo not shown) [Compound 356, 2-(4-chloro-3-fluorophenoxy)-N-(2-hydroxy-4-{2-[5-(trifluoromethyl)pyridin-2-yl]acetamido}bicyclo[2.2.2]octan-1-yl)acetamide] | 10 to 50 | – |
| O=C(COc1ccc(Cl)c(F)c1)NC12CC(NC(=O)Cc3ccc(C(F)(F)F)nc3)(C1)C2 [Compound 342, 2-(4-chloro-3-fluorophenoxy)-N-(3-{2-[6-(trifluoromethyl)pyridin-3-yl]acetamido}bicyclo[1.1.1]pentan-1-yl)acetamide] | 250 to 500 | – |

| SMILES | EC50 (Homo sapiens, HEK-293T) [nM] | EC50 [nM] |
| --- | --- | --- |
| Cc1cc(OCC(=O)NC23CCC(NC(=O)COc4ccc(Cl)c(F)c4)(CC2)[C@@H](O)C3)cc(C)c1C [Compound 469, 2-(4-chloro-3-fluorophenoxy)-N-{(2S)-2-hydroxy-4-[2-(3,4,5-trimethylphenoxy)acetamido]bicyclo[2.2.2]octan-1-yl}acetamide] | > 2000 | – |
| O=C(COc1ccc(Cl)c(F)c1)NC12CCC(NC(=O)Cc3ccc(C(F)(F)F)cc3)(CC1)C(O)C2 (stereo not shown) [Compound 322, 2-(4-chloro-3-fluorophenoxy)-N-(3-hydroxy-4-{2-[4-(trifluoromethyl)phenyl]acetamido}bicyclo[2.2.2]octan-1-yl)acetamide] | 50 to 250 | – |
| O=C(COc1cccnc1)NC12CCC(NC(=O)COc3ccc(Cl)c(F)c3)(C1)C2 [Compound 403, 2-(4-chloro-3-fluorophenoxy)-N-(4-{2-[(pyridin-3-yl)oxy]acetamido}bicyclo[2.1.1]hexan-1-yl)acetamide] | 500 to 2000 | – |
| O=C(COc1ccc(C(F)(F)F)c(F)c1)NC12CCC(NC(=O)COc3ccc(Cl)cc3)(CC1)[C@@H](O)C2 [Compound 843, 2-(4-chlorophenoxy)-N-[(2S)-4-{2-[3-fluoro-4-(trifluoromethyl)phenoxy]acetamido}-2-hydroxybicyclo[2.2.2]octan-1-yl]acetamide] | < 10 | – |
| O=C(COc1ccc(Cl)c(F)c1)NC12CCC(NC(=O)COc3ccc4c(c3)OC(F)(F)O4)(C1)C2 [Compound 380, 2-(4-chloro-3-fluorophenoxy)-N-(4-{2-[(2,2-difluoro-2H-1,3-benzodioxol-5-yl)oxy]acetamido}bicyclo[2.1.1]hexan-1-yl)acetamide] | 10 to 50 | – |
| O=C(COc1ccc(Cl)cc1)NC12CC(NC(=O)COc3ccc(Cl)c(F)c3)(C1)C2 [Compound 368, 2-(4-chloro-3-fluorophenoxy)-N-{3-[2-(4-chlorophenoxy)acetamido]bicyclo[1.1.1]pentan-1-yl}acetamide] | < 10 | – |
| O=C(CCOc1cccc(Cl)c1)NC12CC(NC(=O)COc3ccc(Cl)c(F)c3)(C1)C2 [Compound 147, N-{3-[2-(4-chloro-3-fluorophenoxy)acetamido]bicyclo[1.1.1]pentan-1-yl}-3-(3-chlorophenoxy)propanamide] | 50 to 250 | – |
| O=C(COc1ccc(Cl)cc1)NC12CCC(NC(=O)COc3ccc(F)cc3)(CC1)[C@@H](O)C2 [Compound 708, 2-(4-chlorophenoxy)-N-{(3S)-4-[2-(4-fluorophenoxy)acetamido]-3-hydroxybicyclo[2.2.2]octan-1-yl}acetamide] | – | < 10 |
| O=C(COc1cnc(C(=O)O)nc1)NC12CCC(NC(=O)COc3ccc(Cl)c(F)c3)(CC1)[C@@H](O)C2 [Compound 642, 5-[2-({(3S)-4-[2-(4-chloro-3-fluorophenoxy)acetamido]-3-hydroxybicyclo[2.2.2]octan-1-yl}amino)-2-oxoethoxy]pyrimidine-2-carboxylic Acid] | > 2000 | – |
| O=C(COc1cccc(C(F)(F)F)n1)NC12CCC(NC(=O)COc3ccc(Cl)cc3)(CC1)[C@@H](O)C2 [Compound 825, 2-(4-chlorophenoxy)-N-[(2S)-2-hydroxy-4-(2-{[6-(trifluoromethyl)pyridin-2-yl]oxy}acetamido)bicyclo[2.2.2]octan-1-yl]acetamide] | 50 to 250 | – |
| Cc1nn(C)c(C)c1OCC(=O)NC12CC(NC(=O)COc3ccc(Cl)c(F)c3)(C1)C2 [Compound 374, 2-(4-chloro-3-fluorophenoxy)-N-(3-{2-[(1,3,5-trimethyl-1H-pyrazol-4-yl)oxy]acetamido}bicyclo[1.1.1]pentan-1-yl)acetamide] | > 2000 | – |
| Cn1cc(OCC(=O)NC23CCC(NC(=O)COc4ccc(Cl)c(F)c4)(CC2)C[C@@H]3O)cn1 [Compound 658, 2-(4-chloro-3-fluorophenoxy)-N-[(3S)-3-hydroxy-4-{2-[(1-methyl-1H-pyrazol-4-yl)oxy]acetamido}bicyclo[2.2.2]octan-1-yl]acetamide] | 50 to 250 | – |
| O=C(COc1ccc(F)c(F)c1)NC12CCC(NC(=O)COc3ccc(F)cc3)(CC1)[C@@H](O)C2 [Compound 811, 2-(3,4-difluorophenoxy)-N-{(3S)-4-[2-(4-fluorophenoxy)acetamido]-3-hydroxybicyclo[2.2.2]octan-1-yl}acetamide] | < 10 | – |
| O=C(/C=C/c1ccc(C(F)(F)F)cc1)NC12CC(NC(=O)COc3ccc(Cl)c(F)c3)(C1)C2 [Compound 346, (2E)-N-{3-[2-(4-chloro-3-fluorophenoxy)acetamido]bicyclo[1.1.1]pentan-1-yl}-3-[4-(trifluoromethyl)phenyl]prop-2-enamide] | 50 to 250 | – |
| N#Cc1cc(OCC(=O)NC23CC(NC(=O)COc4ccc5c(c4)OC(F)(F)O5)(C2)C3)ccn1 [Compound 270, 2-[(2-cyanopyridin-4-yl)oxy]-N-(3-{2-[(2,2-difluoro-2H-1,3-benzodioxol-5-yl)oxy]acetamido}bicyclo[1.1.1]pentan-1-yl)acetamide] | 250 to 500 | – |
